Values joined by “and” are separate entries in the source; they are usually repeats but may differ in a detail not shown here. Equal values may be shown once. Toxic doses and inconclusive results are not listed.
System: CD2F1 mice, L1210 leukemia ip, survival T/C
Assay: NCI In Vivo Anticancer Drug Screen. Data for tumor model L1210 Leukemia (intraperitoneal) in CD2F1 (CDF1) mice
Conditions: higher = longer survival
Outline: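 Activity against a transplanted murine tumor was judged by comparing the compound group with a vehicle group. The outcome in the treated animals was divided by that in the controls.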

[1] = endpoint: mean survival time, dose: 100.0 mg/kg/injection, schedule: Q04DX003 (ip), vehicle: saline with Tween-80
[2] = endpoint: mean survival time, dose: 200.0 mg/kg/injection, schedule: Q04DX003 (ip), vehicle: saline with Tween-80
[3] = endpoint: mean survival time, dose: 400.0 mg/kg/injection, schedule: Q04DX003 (ip), vehicle: saline with Tween-80
[4] = endpoint: mean survival time, dose: 25.0 mg/kg/injection, schedule: Q04DX002 (ip), vehicle: saline with Tween-80
[5] = endpoint: mean survival time, dose: 50.0 mg/kg/injection, schedule: Q04DX002 (ip), vehicle: saline with Tween-80
[6] = endpoint: mean survival time, dose: 100.0 mg/kg/injection, schedule: Q01DX009 (ip), vehicle: saline with Tween-80
[7] = endpoint: mean survival time, dose: 200.0 mg/kg/injection, schedule: Q01DX009 (ip), vehicle: saline with Tween-80
[8] = endpoint: mean survival time, dose: 400.0 mg/kg/injection, schedule: Q01DX009 (ip), vehicle: saline with Tween-80
[9] = endpoint: mean survival time, dose: 100.0 mg/kg/injection, schedule: Q01DX001 (ip), vehicle: saline
[10] = endpoint: mean survival time, dose: 50.0 mg/kg/injection, schedule: Q01DX009 (ip), vehicle: saline with Tween-80
[11] = endpoint: mean survival time, dose: 200.0 mg/kg/injection, schedule: Q01DX001 (ip), vehicle: saline
[12] = endpoint: mean survival time, dose: 400.0 mg/kg/injection, schedule: Q01DX001 (ip), vehicle: saline

O.O=S(=O)(O)O.[NH-]C1CCCC1[NH-].[Pt+2] (centres undefined)
T/C (endpoint: mean survival time, dose: 0.5 mg/kg/injection, schedule: Q01DX009 (ip), vehicle: dextrose): 116 % of control and 120 % of control
T/C (endpoint: mean survival time, dose: 0.5 mg/kg/injection, schedule: Q04DX003 (ip), vehicle: dextrose): 102 % of control and 106 % of control
T/C (endpoint: mean survival time, dose: 1.0 mg/kg/injection, schedule: Q01DX001 (ip), vehicle: dextrose): 100 % of control and 104 % of control
T/C (endpoint: mean survival time, dose: 1.0 mg/kg/injection, schedule: Q04DX003 (ip), vehicle: dextrose): 116 % of control and 112 % of control
T/C (endpoint: mean survival time, dose: 2.0 mg/kg/injection, schedule: Q01DX009 (ip), vehicle: dextrose): 160 % of control
T/C (endpoint: mean survival time, dose: 2.0 mg/kg/injection, schedule: Q04DX003 (ip), vehicle: dextrose): 119 % of control
T/C (endpoint: mean survival time, dose: 4.0 mg/kg/injection, schedule: Q01DX009 (ip), vehicle: dextrose): 108 % of control
T/C (endpoint: mean survival time, dose: 4.0 mg/kg/injection, schedule: Q04DX003 (ip), vehicle: other): 165 % of control
T/C (endpoint: mean survival time, dose: 6.0 mg/kg/injection, schedule: Q01DX001 (ip), vehicle: dextrose): 151 % of control
T/C (endpoint: mean survival time, dose: 8.0 mg/kg/injection, schedule: Q04DX003 (ip), vehicle: dextrose): 160 % of control and 188 % of control
T/C (endpoint: mean survival time, dose: 10.0 mg/kg/injection, schedule: Q01DX001 (ip), vehicle: dextrose): 160 % of control
T/C (endpoint: mean survival time, dose: 16.0 mg/kg/injection, schedule: Q04DX003 (ip), vehicle: dextrose): 102 % of control

CC1OC(c2ccccc2)OC1C (centres undefined)
T/C [1]: 94 % of control
T/C [2]: 92 % of control
T/C [3]: 90 % of control

CN(C)c1ccc(N=Nc2cccc(C(=O)[O-])c2)cc1.CN(C)c1ccc(N=Nc2cccc(C(=O)[O-])c2)cc1.NC1CCCCC1N.[Pt+4]
T/C (endpoint: median survival time, dose: 3.12 mg/kg/injection, schedule: Q04DX003 (ip), vehicle: saline with Tween-80): 116 % of control and 98 % of control
T/C (endpoint: median survival time, dose: 6.25 mg/kg/injection, schedule: Q04DX003 (ip), vehicle: saline with Tween-80): 115 % of control and 109 % of control
T/C (endpoint: median survival time, dose: 12.5 mg/kg/injection, schedule: Q04DX003 (ip), vehicle: saline with Tween-80): 101 % of control
T/C (endpoint: median survival time, dose: 100.0 mg/kg/injection, schedule: Q04DX003 (ip), vehicle: saline with Tween-80): 375 % of control
T/C (endpoint: median survival time, dose: 200.0 mg/kg/injection, schedule: Q04DX003 (ip), vehicle: saline with Tween-80): 104 % of control

Clc1ccc(CC[PH+]2CC=CC2)cc1.Clc1ccc(CC[PH+]2CC=CC2)cc1.[Cl][Ni][Cl]
T/C (endpoint: mean survival time, dose: 12.5 mg/kg/injection, schedule: Q01DX009 (ip), vehicle: DMSO): 101 % of control
T/C (endpoint: mean survival time, dose: 25.0 mg/kg/injection, schedule: Q01DX009 (ip), vehicle: DMSO): 101 % of control
T/C [4]: 91 % of control
T/C [5]: 95 % of control

Cc1ccc(NC(=S)NCCO)cc1
T/C [6]: 86 % of control
T/C [7]: 92 % of control
T/C [8]: 88 % of control

O=[N+]([O-])c1cc(Cl)ccc1O
T/C [6]: 93 % of control
T/C [7]: 90 % of control

NC(=O)c1cc(Cl)nc2nc(Cl)nc(N)c12
T/C (endpoint: median survival time, dose: 25.0 mg/kg/injection, schedule: Q01DX009 (ip), vehicle: saline with Tween-80): 89 % of control
T/C (endpoint: median survival time, dose: 50.0 mg/kg/injection, schedule: Q01DX009 (ip), vehicle: saline with Tween-80): 94 % of control
T/C (endpoint: median survival time, dose: 100.0 mg/kg/injection, schedule: Q01DX009 (ip), vehicle: saline with Tween-80): 100 % of control
T/C (endpoint: median survival time, dose: 200.0 mg/kg/injection, schedule: Q01DX009 (ip), vehicle: saline with Tween-80): 100 % of control
T/C (endpoint: median survival time, dose: 400.0 mg/kg/injection, schedule: Q01DX009 (ip), vehicle: saline with Tween-80): 101 % of control

CN1CCc2cc3c(cc2C1)OCO3
T/C (endpoint: mean survival time, dose: 75.0 mg/kg/injection, schedule: Q01DX001 (ip), vehicle: other): 98 % of control
T/C [9]: 97 % of control
T/C (endpoint: mean survival time, dose: 150.0 mg/kg/injection, schedule: Q01DX001 (ip), vehicle: other): 92 % of control

C=CC1C2C=CC(CC2)C1O (centres undefined)
T/C [1]: 98 % of control
T/C [2]: 101 % of control
T/C [3]: 104 % of control

CC(C)(C)OC(=O)NC(CSC(c1ccccc1)(c1ccccc1)c1ccccc1)C(=O)NCC(=O)O (centres undefined)
T/C (endpoint: mean survival time, dose: 75.0 mg/kg/injection, schedule: Q01DX001 (ip), vehicle: saline): 96 % of control

O=S(=O)(Cl)OC(CCl)C(OS(=O)(=O)Cl)C(OS(=O)(=O)Cl)C(CCl)OS(=O)(=O)Cl (centres undefined)
T/C [6]: 92 % of control
T/C [7]: 100 % of control
T/C [8]: 100 % of control

COC(=O)C1OC1(C)c1ccc(C)cc1 (centres undefined)
T/C (endpoint: mean survival time, dose: 25.0 mg/kg/injection, schedule: Q01DX009 (ip), vehicle: saline with Tween-80): 89 % of control
T/C [10]: 94 % of control
T/C [6]: 93 % of control

c1ccc2[nH]c(CCCCCCCCc3nc4ccccc4[nH]3)nc2c1
T/C [6]: 102 % of control
T/C [7]: 104 % of control

C[P+](CP(=O)(c1ccccc1)c1ccccc1)(c1ccccc1)c1ccccc1
T/C [4]: 107 % of control
T/C [5]: 92 % of control
T/C (endpoint: mean survival time, dose: 100.0 mg/kg/injection, schedule: Q04DX002 (ip), vehicle: saline with Tween-80): 96 % of control

CCOP(=S)(N=C=S)OCC
T/C [4]: 98 % of control
T/C [5]: 90 % of control

CSCCC(NC=O)C(=O)O (centres undefined)
T/C (endpoint: mean survival time, dose: 12.5 mg/kg/injection, schedule: Q01DX001 (ip), vehicle: saline): 98 % of control
T/C (endpoint: mean survival time, dose: 25.0 mg/kg/injection, schedule: Q01DX001 (ip), vehicle: saline): 93 % of control
T/C (endpoint: mean survival time, dose: 50.0 mg/kg/injection, schedule: Q01DX001 (ip), vehicle: saline): 106 % of control

O=C(O)CC1NCCC12OCCO2 (centres undefined)
T/C [9]: 97 % of control
T/C (endpoint: mean survival time, dose: 100.0 mg/kg/injection, schedule: Q01DX009 (ip), vehicle: saline): 98 % of control
T/C [11]: 102 % of control
T/C (endpoint: mean survival time, dose: 200.0 mg/kg/injection, schedule: Q01DX009 (ip), vehicle: saline): 98 % of control
T/C [12]: 92 % of control
T/C (endpoint: mean survival time, dose: 400.0 mg/kg/injection, schedule: Q01DX009 (ip), vehicle: saline): 101 % of control

CN1C(=O)C=C(C=Nc2ccc(-c3ccccc3)cc2)C2CCCCC21 (centres undefined)
T/C [1]: 106 % of control
T/C [2]: 98 % of control
T/C [3]: 97 % of control

CC1CC(=O)C=C(O)C1 (centres undefined)
T/C [1]: 93 % of control
T/C [2]: 93 % of control
T/C [3]: 93 % of control

O=C(O)/C=C/C1=CCCCC1
T/C [10]: 101 % of control
T/C [6]: 93 % of control
T/C [7]: 93 % of control

CCOC(=O)N1C2CC(C3C2N3S(=O)(=O)c2ccccc2)N1C(=O)OCC (centres undefined)
T/C [1]: 104 % of control
T/C [2]: 103 % of control
T/C [3]: 90 % of control

CCOC(=O)CC(=O)C(F)(F)F.[Cu+2]
T/C (endpoint: mean survival time, dose: 2.5 mg/kg/injection, schedule: Q01DX009 (ip), vehicle: saline with Tween-80): 98 % of control
T/C (endpoint: mean survival time, dose: 5.0 mg/kg/injection, schedule: Q01DX009 (ip), vehicle: saline with Tween-80): 98 % of control
T/C (endpoint: mean survival time, dose: 10.0 mg/kg/injection, schedule: Q01DX009 (ip), vehicle: saline with Tween-80): 95 % of control

O=C(O)CBr.O=C(O)CBr.[NH-]C1CCCCCCC1[NH-].[Pt+2] (centres undefined)
T/C (endpoint: mean survival time, dose: 4.68 mg/kg/injection, schedule: Q01DX001 (ip), vehicle: distilled water + Tween-80): 122 % of control
T/C (endpoint: mean survival time, dose: 9.36 mg/kg/injection, schedule: Q01DX001 (ip), vehicle: distilled water + Tween-80): 119 % of control
T/C (endpoint: mean survival time, dose: 18.75 mg/kg/injection, schedule: Q01DX001 (ip), vehicle: distilled water + Tween-80): 161 % of control

Cc1ccc(CS(=O)(=O)C(Cl)(Cl)c2ccc(C)cc2)cc1
T/C (endpoint: mean survival time, dose: 100.0 mg/kg/injection, schedule: Q04DX003 (ip), vehicle: Klucel (hydroxypropylcellulose) (HPC)): 94 % of control
T/C (endpoint: mean survival time, dose: 200.0 mg/kg/injection, schedule: Q04DX003 (ip), vehicle: Klucel (hydroxypropylcellulose) (HPC)): 100 % of control
T/C (endpoint: mean survival time, dose: 400.0 mg/kg/injection, schedule: Q04DX003 (ip), vehicle: Klucel (hydroxypropylcellulose) (HPC)): 94 % of control

COc1cc(N(C)C)ccc1/C=C\c1ccnc2ccccc12
T/C (endpoint: mean survival time, dose: 50.0 mg/kg/injection, schedule: Q01DX001 (ip), vehicle: saline with Tween-80): 96 % of control
T/C (endpoint: mean survival time, dose: 100.0 mg/kg/injection, schedule: Q01DX001 (ip), vehicle: saline with Tween-80): 95 % of control
T/C (endpoint: mean survival time, dose: 200.0 mg/kg/injection, schedule: Q01DX001 (ip), vehicle: saline with Tween-80): 95 % of control
T/C (endpoint: mean survival time, dose: 400.0 mg/kg/injection, schedule: Q01DX001 (ip), vehicle: saline with Tween-80): 93 % of control

Fc1ccccc1OCC1CO1 (centres undefined)
T/C [9]: 114 % of control
T/C [11]: 110 % of control
T/C [12]: 108 % of control

CC(C)(C)C(=O)CC(O)(C(F)(F)F)C(F)(F)F
T/C (endpoint: mean survival time, dose: 100.0 mg/kg/injection, schedule: Q04DX003 (ip), vehicle: saline): 100 % of control
T/C (endpoint: mean survival time, dose: 200.0 mg/kg/injection, schedule: Q04DX003 (ip), vehicle: saline): 97 % of control
T/C (endpoint: mean survival time, dose: 400.0 mg/kg/injection, schedule: Q04DX003 (ip), vehicle: saline): 100 % of control

From PubChem BioAssay AID256 (DTP/NCI, 2004)
